Like-named read-outs stand apart in the source and are kept apart here.
Target: T1, IRAK4 (Homo sapiens, UniProt Q9NWZ3)
T1 sequence (Q9NWZ3 1-460): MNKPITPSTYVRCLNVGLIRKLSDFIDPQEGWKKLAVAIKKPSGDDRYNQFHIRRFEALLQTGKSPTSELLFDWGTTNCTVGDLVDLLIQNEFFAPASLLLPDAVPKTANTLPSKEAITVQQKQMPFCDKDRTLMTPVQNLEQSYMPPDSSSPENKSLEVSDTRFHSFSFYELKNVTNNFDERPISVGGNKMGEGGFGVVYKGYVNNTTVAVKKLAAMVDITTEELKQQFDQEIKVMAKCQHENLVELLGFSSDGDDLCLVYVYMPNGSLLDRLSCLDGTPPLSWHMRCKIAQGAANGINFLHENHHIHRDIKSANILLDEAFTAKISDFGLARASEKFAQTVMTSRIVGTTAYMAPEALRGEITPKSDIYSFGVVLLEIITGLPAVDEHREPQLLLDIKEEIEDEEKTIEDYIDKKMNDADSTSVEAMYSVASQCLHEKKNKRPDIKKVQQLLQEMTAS
Assay: Assay for inhibitory effect of compound on IRAK4 kinase activity (KinEASE-STK S1 HTRF kit)
Type: biochemical
Method: Example 1: Kinase activity assay
Assay for inhibitory effect of compound on IRAK4 kinase activity
The inhibitory effect of the compound on IRAK4 kinase activity was measured using the KinEASE-STK S1 serine/threonine kinase kit (Cisbio). The specific method was as follows: the compound was dissolved in dimethyl sulfoxide and then subjected to 3-fold serial dilution in dimethyl sulfoxide, yielding final test compound concentrations in the reaction system ranging from 5,000 nM to 0.0254 nM. The kinase at a final concentration of 8 nM was added, followed by incubation at rt for 15 minutes. Subsequently, biotinylated STK1 substrate at a final concentration of 400 nM and adenosine triphosphate (ATP) at a final concentration of 80 µM were sequentially added, and the mixture was incubated at 37°C for 90 minutes. Then, the reaction was terminated by adding an anti-phosphoserine/threonine antibody conjugated with a europium cryptate and streptavidin-conjugated XL665 to the reaction system. After incubation at rt for 1 hour, the fluorescence intensity at emission wavelengths of 620 nm and 665 nm for each well was measured using an EnVision microplate reader (PerkinElmer) in HTRF mode. The ratio value was calculated using the formula: Ratio = (665 nm/620 nm)×10^4 The inhibition rate of the compound at each concentration was calculated using the formula: Inhibition% = [1-(Signal sample-Signal min)/(Signal max-Signal min)]×100. Subsequently, the dose-response curve was fitted by nonlinear curve fitting of log concentration versus inhibition rate using Fit Modela (205) in XLfit to give the IC50 value of the compound for inhibition of protein activity.

[1] = kinase 8 nM, ATP 80 µM, 37°C 90 minutes, read-out: IRAK4 HTRF IC50

For O=C(Nc1cn(-c2ccccc2)nc1C(=O)C(F)(F)F)c1cccc(-c2ccn[nH]2)n1 [Compound A243, N-(1-Phenyl-3-(2,2,2-trifluoroacetyl)-1H-pyrazol-4-yl)-6-(1H-pyrazol-5-yl)picolinamide], which IC50 [1] is on record?
Its IC50 is less than 100 nM.

CC(C)(C)OC(=O)N1CCC(n2cc(NC(=O)c3cccc(C(F)(F)F)n3)c(C(N)=O)n2)CC1 [Compound A1] was tested. Which IC50 [1] did it give?
Its IC50 is 100 to 1000 nM.

NC(=O)c1nn(-c2cccnc2)cc1NC(=O)c1cccc(C(F)(F)F)n1 [Compound A29] was tested. Which IC50 [1] did it give?
Its IC50 is 100 to 1000 nM.

For NS(=O)(=O)c1cn(-c2ccccc2)nc1NC(=O)c1cccc(C(F)(F)F)n1 [Compound A59, N-(1-phenyl-4-sulfamoyl-1H-pyrazol-3-yl)-6-(trifluoromethyl)picolinamide], which IC50 [1] is on record?
Its IC50 is greater than 1000 nM.

For COCc1ccc(-n2cc(NC(=O)c3cccc(C(F)(F)F)n3)c(C(N)=O)n2)cc1 [Compound A19], which IC50 [1] is on record?
Its IC50 is less than 100 nM.

NC(=O)c1nn(C2CNC2)cc1NC(=O)c1cccc(C(F)(F)F)n1 [Compound A33] was tested. Which IC50 [1] did it give?
Its IC50 is 100 to 1000 nM.

With NC(=O)c1nn(C2CCC2)cc1NC(=O)c1ccn2ncc(-c3ccn[nH]3)c2n1 [Compound A280, N-(3-carbamoyl-1-cyclobutyl-1H-pyrazol-4-yl)-3-(1H-pyrazol-5-yl)pyrazolo[1,5-a]pyrimidine-5-carboxamide] as the compound, how does the IC50 [1] read?
Its IC50 is 100 to 1000 nM.

How did the IC50 [1] turn out when CC(C)(O)c1nn(-c2ccccc2)cc1NC(=O)c1cccc(C(F)(F)F)n1 [Compound A46, N-(3-(2-hydroxypropan-2-yl)-1-phenyl-1H-pyrazol-4-yl)-6-(trifluoromethyl)picolinamide] was run?
The IC50 was 100 to 1000 nM.

For O=C(Nc1cn(-c2ccccc2)nc1C(=O)NC1CC1(F)F)c1cccc(-c2ccn[nH]2)n1 (stereo not drawn) [Compound A251, N-(3-((2,2-Difluorocyclopropyl)carbamoyl)-1-phenyl-1H-pyrazol-4-yl)-6-(1H-pyrazol-5-yl)picolinamide], which IC50 [1] is on record?
Its IC50 is less than 100 nM.

For [2H]C([2H])C(=O)c1nn(-c2ccccc2)cc1NC(=O)c1cccc(-c2ccn[nH]2)n1 [Compound A242, N-(3-(Acetyl-2,2-d2)-1-phenyl-1H-pyrazol-4-yl)-6-(1H-pyrazol-5-yl)picolinamide], which IC50 [1] is on record?
Its IC50 is less than 100 nM.

How did the IC50 [1] turn out when NC(=O)c1nn(-c2ccccc2)cc1NC(=O)c1cccc(-c2cc[nH]n2)n1 [Compound A88] was run?
Its IC50 is less than 100 nM.

Which IC50 [1] does the source give for N#Cc1cnn2c(C(=O)Nc3cn(-c4ccccc4)nc3C(N)=O)ccc2c1 [Compound A231] here?
Its IC50 is less than 100 nM.

O=C(Nc1cn(-c2ccccc2)nc1C(=O)CC(F)(F)F)c1cccc(-c2ccn[nH]2)n1 [Compound A236, N-(1-Phenyl-3-(3,3,3-trifluoropropanoyl)-1H-pyrazol-4-yl)-6-(1H-pyrazol-5-yl)picolinamide] was tested. Which IC50 [1] did it give?
Its IC50 is 100 to 1000 nM.

For CNc1ccc(-n2cc(NC(=O)c3cccc(C(F)(F)F)n3)c(C(N)=O)n2)cc1 [Compound A10], which IC50 [1] is on record?
Its IC50 is 100 to 1000 nM.

CC(C)NS(=O)(=O)c1nn(-c2ccccc2)cc1NC(=O)c1cccc(-c2ccn[nH]2)n1 [Compound A249, N-(3-(N-Isopropylsulfamoyl)-1-phenyl-1H-pyrazol-4-yl)-6-(1H-pyrazol-5-yl)picolinamide] was tested. Which IC50 [1] did it give?
Its IC50 is 100 to 1000 nM.

How did the IC50 [1] turn out when NC(=O)c1nn(-c2ccc(N)cc2)cc1NC(=O)c1cccc(C(F)(F)F)n1 [Compound A9] was run?
The IC50 was 100 to 1000 nM.

NC(=O)c1nc(-c2ccccc2)sc1NC(=O)c1cccc(C(F)(F)F)n1 [Compound A56, 2-Phenyl-5-(6-(trifluoromethyl)picolinamido)thiazole-4-carboxamide] was tested. Which IC50 [1] did it give?
The IC50 was greater than 1000 nM.

Which IC50 [1] does the source give for CC(=O)N(C)Cc1ccc(-n2cc(NC(=O)c3cccc(C(F)(F)F)n3)c(C(N)=O)n2)cc1 [Compound A24] here?
Its IC50 is less than 100 nM.

O=C(Nc1cn(C2CCC2)nc1C(=O)NC1CC1)c1cccc(-c2ccn[nH]2)n1 [Compound A252, N-(1-Cyclobutyl-3-(cyclopropylcarbamoyl)-1H-pyrazol-4-yl)-6-(1H-pyrazol-5-yl)picolinamide] was tested. Which IC50 [1] did it give?
The IC50 was less than 100 nM.

For CC(=O)NCc1ccc(-n2cc(NC(=O)c3cccc(C(F)(F)F)n3)c(C(N)=O)n2)cc1 [Compound A23], which IC50 [1] is on record?
The IC50 was less than 100 nM.

Which IC50 [1] does the source give for NC(=O)c1nn(-c2cnc(Br)cn2)cc1NC(=O)c1cccc(C(F)(F)F)n1 [Compound A2] here?
The IC50 was greater than 1000 nM.

With CC(C)(O)c1nn(C2CCC2)cc1NC(=O)c1cnn2ccc(-c3ccn[nH]3)nc12 [Compound A290, N-(1-cyclobutyl-3-(2-hydroxypropan-2-yl)-1H-pyrazol-4-yl)-5-(1H-pyrazol-5-yl)pyrazolo[1,5-a]pyrimidine-3-carboxamide] as the compound, how does the IC50 [1] read?
Its IC50 is 100 to 1000 nM.

N#Cc1cnn2c(C(=O)Nc3cn(C4CCCCC4)nc3C(F)F)ccc2c1 [Compound A266, 3-cyano-N-(1-cyclohexyl-3-(difluoromethyl)-1H-pyrazol-4-yl)pyrrolo[1,2-b]pyridazine-7-carboxamide] was tested. Which IC50 [1] did it give?
The IC50 was 100 to 1000 nM.

Which IC50 [1] does the source give for N#Cc1cnn2c(C(=O)Nc3cn(C4CC5(CCNCC5)C4)nc3C(F)F)ccc2c1 [Compound A229, 3-Cyano-N-(3-(difluoromethyl)-1-(7-azaspiro[3.5]nonan-2-yl)-1H-pyrazol-4-yl)pyrrolo[1,2-b]pyridazine-7-carboxamide] here?
Its IC50 is less than 100 nM.

CNC(=O)c1nn(-c2ccccc2)cc1NC(=O)c1cccc(-c2ccn[nH]2)n1 [Compound A246, N-(3-(Methylcarbamoyl)-1-phenyl-1H-pyrazol-4-yl)-6-(1H-pyrazol-5-yl)picolinamide] was tested. Which IC50 [1] did it give?
Its IC50 is less than 100 nM.

For NC(=O)c1sc(-c2ccccc2)nc1NC(=O)c1cccc(C(F)(F)F)n1 [Compound A55, 2-Phenyl-4-(6-(trifluoromethyl)picolinamido)thiazole-5-carboxamide], which IC50 [1] is on record?
Its IC50 is greater than 1000 nM.

Which IC50 [1] does the source give for CNC1CC(c2nn(-c3ccccc3)cc2NC(=O)c2cccc(C(F)(F)F)n2)C1 (stereo not drawn) [Compound A44, N-(3-(3-(Methylamino)cyclobutyl)-1-phenyl-1H-pyrazol-4-yl)-6-(trifluoromethyl)picolinamide] here?
Its IC50 is greater than 1000 nM.

Which IC50 [1] does the source give for NC(=O)c1nn(-c2ccc(C(=O)N3CCNCC3)cc2)cc1NC(=O)c1cccc(C(F)(F)F)n1 [Compound A16] here?
The IC50 was less than 100 nM.

NC(=O)c1nn(-c2ccc(C(=O)N3CC(CNc4ccc5c(c4)C(=O)N(C4CCC(=O)NC4=O)C5=O)C3)cc2)cc1NC(=O)c1cccc(C(F)(F)F)n1 (stereo not drawn) [Compound A110] was tested. Which IC50 [1] did it give?
The IC50 was less than 100 nM.

Which IC50 [1] does the source give for CNS(=O)(=O)c1nn(-c2ccccc2)cc1NC(=O)c1cccc(-c2ccn[nH]2)n1 [Compound A248, N-(3-(N-Methylsulfamoyl)-1-phenyl-1H-pyrazol-4-yl)-6-(1H-pyrazol-5-yl)picolinamide] here?
The IC50 was less than 100 nM.

For NC(=O)c1nn(-c2ccc(C(=O)O)nc2)cc1NC(=O)c1cccc(C(F)(F)F)n1 [Compound A31], which IC50 is on record?
The IC50 was 100 to 1000 nM.

Which IC50 [1] does the source give for NC(=O)c1nc(-c2ccccc2)[nH]c1NC(=O)c1cccc(C(F)(F)F)n1 [Compound A54] here?
Its IC50 is greater than 1000 nM.

How did the IC50 [1] turn out when NC(=O)c1nn(-c2ccc(N3CCNCC3)cc2)cc1NC(=O)c1cccc(C(F)(F)F)n1 [Compound A25] was run?
The IC50 was less than 100 nM.

With NC(=O)c1[nH]c(-c2ccccc2)cc1NC(=O)c1cccc(C(F)(F)F)n1 [Compound A48] as the compound, how does the IC50 [1] read?
The IC50 was less than 100 nM.

Which IC50 [1] does the source give for NC(=O)c1cc(-c2ccccc2)sc1NC(=O)c1cccc(C(F)(F)F)n1 [Compound A51] here?
The IC50 was greater than 1000 nM.

O=C(Nc1cn(-c2ccccc2)nc1C1CCC1)c1cccc(C(F)(F)F)n1 [Compound A72, N-(3-cyclobutyl-1-phenyl-1H-pyrazol-4-yl)-6-(trifluoromethyl)picolinamide] was tested. Which IC50 [1] did it give?
The IC50 was greater than 1000 nM.

With NC(=O)c1nn(-c2ccccc2)cc1NC(=O)c1cccc(-c2cc[nH]c2)n1 [Compound A91] as the compound, how does the IC50 [1] read?
The IC50 was 100 to 1000 nM.

How did the IC50 [1] turn out when NC(=O)c1nn(C2CCNCC2)cc1NC(=O)c1cccc(C(F)(F)F)n1 [Compound A3] was run?
Its IC50 is 100 to 1000 nM.

Which IC50 [1] does the source give for O=C(Nc1cn(-c2ccccc2)nc1C(=O)C(F)F)c1cccc(-c2ccn[nH]2)n1 [Compound A244, N-(3-(2,2-difluoroacetyl)-1-phenyl-1H-pyrazol-4-yl)-6-(1H-pyrazol-5-yl)picolinamide] here?
The IC50 was less than 100 nM.

Which IC50 [1] does the source give for O=C(Nc1cn(-c2ccc(N3CCNCC3)cc2)nc1C(F)F)c1cccc(C(F)(F)F)n1 [Compound A42] here?
Its IC50 is less than 100 nM.

Which IC50 [1] does the source give for NS(=O)(=O)c1nn(-c2ccccc2)cc1NC(=O)c1cccc(C(F)(F)F)n1 [Compound A62, N-(1-phenyl-3-sulfamoyl-1H-pyrazol-4-yl)-6-(trifluoromethyl)picolinamide] here?
Its IC50 is 100 to 1000 nM.

Which IC50 [1] does the source give for NC(=O)c1cc(-c2ccccc2)oc1NC(=O)c1cccc(C(F)(F)F)n1 [Compound A53] here?
The IC50 was greater than 1000 nM.

With O=C(NC1CC1)c1nn(C2CCC2)cc1NC(=O)c1cnn2ccc(-c3cn[nH]c3)nc12 [Compound A287] as the compound, how does the IC50 [1] read?
The IC50 was 100 to 1000 nM.

With NC(=O)c1sc(-c2ccccc2)cc1NC(=O)c1cccc(C(F)(F)F)n1 [Compound A50] as the compound, how does the IC50 [1] read?
The IC50 was greater than 1000 nM.

NC(=O)c1cn(-c2ccccc2)cc1NC(=O)c1cccc(C(F)(F)F)n1 [Compound A47] was tested. Which IC50 [1] did it give?
Its IC50 is less than 100 nM.

Source: patent EP4763839A1 (Pamplona Therapeutics (Shenzhen) Co., Ltd., priority 2023, dated 2025)
